Measurements: US20220174981A1, “PROLINE TOLERANT TRIPEPTIDYL PEPTIDASES AND USES THEREOF” (DuPont Nutrition Biosciences APS, priority 2014, published 2022)

How the values were obtained:
[1] = system: proline tolerant tripeptidyl peptidase (TRI083); experiment: Hydrolysis of 33-mer gliadin peptide, LC-MS label-free quantification; type: biochemical; conditions: for Relative MS peak intensities: 24° C., pH 4.5
Experimental: The 33-mer of gliadin (alpha-2-gliadin) (aa56-88) H-[…]-OH (Zedira GmbH; D-64293 Darmstadt, Germany) C190H273N43O47 (MW=3911.46) (1 mg/ml; 0.26 mM) was incubated at 24° C. in the presence of proline tolerant tripeptidyl peptidase (0.01 mg/ml TRI083) in a total volume of 1000 ul buffer (pH=4.5) (the ratio substrate/enzyme 100:1, w/w). Aliquots (100 ul) of enzyme reaction were stopped with 20 ul 5% trifluoroacetic acid (TFA) after 0, 1, 3, 5, 10, 15 and 30 minutes, respectively. The samples were then transferred to new vials and analyzed on the LTQ Orbitrap mass spectrometer.
The LC-MS/MS data was manually annotated using GPMAW to calculate theoretical values of fragmentation.

[2] = system: H-Ala-Ala-Phe-pNA; experiment: Low pH stability of tripeptidyl peptidases (pH 2.5, 40° C., 60 min), activity on H-Ala-Ala-Phe-pNA; type: biochemical; conditions: for OD410nm (Final): after pH 2.5, 40° C., 60 min; for OD410nm (Initial): without incubation at 40° C. for 60 min
Experimental: As requirements for utilization of the enzymes in feed for monogastric animals, the enzymes should be active at lower pH. For this reason the number of tripeptidyl peptidases has been tested with the reaction on synthetic substrate AAF (H-Ala-Ala-Phe-pNA. BACHEM, L-1095), at pH 2.5.
The tripeptide substrate AAF was prepared at 2.5 mg/ml in DMSO. Tripeptidyl peptidases were used as broth. The reaction mixture containing 2.5 μl enzyme and 90 μL glycine acetic acid-Tris buffer (each buffer components at 50 mM, pH 2.5) was prepared in 96 well incubation plates.
The incubation plate was mixed and incubated at 40° C. for 60 min. Then 50 μl 0.2M Mes-NaOH pH6.0 was added to each well, mixed at 600 rpm for 2 min. After that, 5 ul of the incubation mixture were taken to 96 well assay plate already filled with 85 μl 0.1M acetic acid buffer, pH4.0 and 5 μl 2.5 mg/ml AAF substrate solution.
The reaction mixture was stirred at 600 rpm for 2 min and read directly in a microplate reader (Molecular Devices, Denmark) at 410 nm at 30° C. every 30 second for 15 min.
To measure initial enzyme activity, similar procedure was performed except the step of enzyme incubation at 40° C. for 60 min.

Sequence of proline tolerant tripeptidyl peptidase (TRI083) (as listed by the source): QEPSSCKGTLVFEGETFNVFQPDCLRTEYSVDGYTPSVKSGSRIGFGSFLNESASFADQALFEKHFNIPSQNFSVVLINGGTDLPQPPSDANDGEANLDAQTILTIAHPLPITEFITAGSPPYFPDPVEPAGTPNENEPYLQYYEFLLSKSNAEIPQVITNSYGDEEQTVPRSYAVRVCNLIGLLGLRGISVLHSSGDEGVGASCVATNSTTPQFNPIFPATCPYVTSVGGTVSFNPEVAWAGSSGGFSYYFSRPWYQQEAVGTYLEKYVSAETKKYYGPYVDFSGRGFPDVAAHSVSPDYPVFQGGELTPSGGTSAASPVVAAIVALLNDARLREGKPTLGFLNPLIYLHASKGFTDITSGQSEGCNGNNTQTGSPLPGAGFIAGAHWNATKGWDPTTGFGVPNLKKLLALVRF

| Molecule | Relative MS peak intensities ([1]; 0 min with TRI083 0.01 mg/ml) | Relative MS peak intensities ([1]; 1 min with TRI083 0.01 mg/ml) | Relative MS peak intensities ([1]; 3 min with TRI083 0.01 mg/ml) | Relative MS peak intensities ([1]; 5 min with TRI083 0.01 mg/ml) | Relative MS peak intensities ([1]; 10 min with TRI083 0.01 mg/ml) | Relative MS peak intensities ([1]; 15 min with TRI083 0.01 mg/ml) | Relative MS peak intensities ([1]; 30 min with TRI083 0.01 mg/ml) | detectability of the intact peptide over time ([1]; TRI083 0.01 mg/ml, substrate/enzyme 100:1) | cleavage by proline tolerant tripeptidyl peptidase ([1]; proline in P3,P2,P1,P1′,P2′ and P3′ positions) | OD410nm (Final) [2] | OD410nm (Final) ([2]; listed as TRI050.3) | OD410nm (Initial) [2] | OD410nm (Initial) ([2]; listed as TRI050.3) |
| --- | --- | --- | --- | --- | --- | --- | --- | --- | --- | --- | --- | --- | --- |
| H-LQLQPFPQPQLPYPQPQLPYPQPQLPYPQPQPF-OH [Alpha-2 gliadin, 33-mer of gliadin (alpha-2-gliadin) (aa56-88), substrate, reference compound] | 100 | 10 | 0 | 0 | 0 | 0 | 0 | not detectable after 3 min | consecutively into tri-peptides irrespective of a high proline content | – | – | – | – |
| LPY | 5 | 21 | 46 | 62 | 90 | 100 | 94 | – | – | – | – | – | – |
| LQL | 3 | 91 | 88 | 94 | 94 | 100 | 100 | – | – | – | – | – | – |
| PQL | 8 | 21 | 30 | 32 | 42 | 58 | 100 | – | – | – | – | – | – |
| PYP | 4 | 7 | 12 | 15 | 28 | 48 | 101 | – | – | – | – | – | – |
| QPF | 0 | 4 | 55 | 7 | 129 | 26 | 100 | – | – | – | – | – | – |
| YPQPQLPYPQPQLPYPQPQPF [intermediate product of alpha-2-gliadin hydrolysis] | 79 | 100 | 52 | 23 | 23 | 23 | 20 | – | – | – | – | – | – |
| TRI050: tripeptidyl peptidase, SEQ ID No. 7/SEQ ID No. 34, used as broth (protein, listed as Fusarium graminearum, used as fermentation broth) chain 1: KSYSHHAEAPKGWKVDDTARVASTGKQQVFSIALTMQNVDQLESKLLDLSSPDSKNYGQWMSQKDVTTAFYPSKEAVSSVTKWLKSKGVKHYNVNGGFIDFALDVKGANALLDSDYQYYTKEGQTKLRTLSYSIPDDVAEHVQFVDPSTNFGGTLAFAPVTHPSRTLTERKNKPTKSTVDASCQTSITPSCLKQMYNIGDYTPKVESGSTIGFSSFLGESAIYSDVFLFEEKFGIPTQNFTTVLINNGTDDQNTAHKNFGEADLDAENIVGIAHPLPFTQYITGGSPPFLPNIDQPTAADNQNEPYVPFFRYLLSQKEVPAVVSTSYGDEEDSVPREYATMTCNLIGLLGLRGISVIFSSGDIGVGAGCLGPDHKTVEFNAIFPATCPYLTSVGGTVDVTPEIAWEGSSGGFSKYFPRPSYQDKAVKTYMKTVSKQTKKYYGPYTNWEGRGFPDVAGHSVSPNYEVIYAGKQSASGGTSAAAPVWAAIVGLLNDARFRAGKPSLGWLNPLVYKYGPKVLTDITGGYAIGCDGNNTQSGKPEPAGSGIVPGARWNATAGWDPVTGYGTPDFGKLKDLVLSF chain 2: CQTSITPSCLKQMYNIGDYTPKVESGSTIGFSSFLGESAIYSDVFLFEEKFGIPTQNFTTVLINNGTDDQNTAHKNFGEADLDAENIVGIAHPLPFTQYITGGSPPFLPNIDQPTAADNQNEPYVPFFRYLLSQKEVPAVVSTSYGDEEDSVPREYATMTCNLIGLLGLRGISVIFSSGDIGVGAGCLGPDHKTVEFNAIFPATCPYLTSVGGTVDVTPEIAWEGSSGGFSKYFPRPSYQDKAVKTYMKTVSKQTKKYYGPYTNWEGRGFPDVAGHSVSPNYEVIYAGKQSASGGTSAAAPVWAAIVGLLNDARFRAGKPSLGWLNPLVYKYGPKVLTDITGGYAIGCDGNNTQSGKPEPAGSGIVPGARWNATAGWDPVTGYGTPDFGKLKDLVLS | – | – | – | – | – | – | – | – | – | 0.814 | 0.501 | 0.895 | 0.603 |
| TRI053.1: tripeptidyl peptidase, SEQ ID No. 10/SEQ ID No. 37, used as broth (protein, listed as Aspergillus kawachii, used as fermentation broth) chain 1: VVHEKLAAVPSGWHHLEDAGSDHQISLSIALARKNLDQLESKLKDLSTPGESQYGQWLDQEEVDTLFPVASDKAVISWLRSANITHIARQGSLVNFATTVDKVNKLLNTTFAYYQRGSSQRLRTTEYSIPDDLVDSIDLISPTTFFGKEKTSAGLTQRSQKVDNHVAKRSNSSSCADTITLSCLKEMYNFGNYTPSASSGSKLGFASFLNESASYSDLAKFERLFNLPSQNFSVELINGGVNDQNQSTASLTEADLDVELLVGVGHPLPVTEFITSGEPPFIPDPDEPSAADNENEPYLQYYEYLLSKPNSALPQVISNSYGDDEQTVPEYYAKRVCNLIGLVGLRGISVLESSGDEGIGSGCRTTDGTNSTQFNPIFPATCPYVTAVGGTMSYAPEIAWEASSGGFSNYFERAWFQKEAVQNYLANHITNETKQYYSQFANFSGRGFPDVSAHSFEPSYEVIFYGARYGSGGTSAACPLFSALVGMLNDARLRAGKSTLGFLNPLLYSKGYKALTDVTAGQSIGCNGIDPQSDEAVAGAGIIPWAHWNATVGWDPVTGLGLPDFEKLRQLVLSL chain 2: CADTITLSCLKEMYNFGNYTPSASSGSKLGFASFLNESASYSDLAKFERLFNLPSQNFSVELINGGVNDQNQSTASLTEADLDVELLVGVGHPLPVTEFITSGEPPFIPDPDEPSAADNENEPYLQYYEYLLSKPNSALPQVISNSYGDDEQTVPEYYAKRVCNLIGLVGLRGISVLESSGDEGIGSGCRTTDGTNSTQFNPIFPATCPYVTAVGGTMSYAPEIAWEASSGGFSNYFERAWFQKEAVQNYLANHITNETKQYYSQFANFSGRGFPDVSAHSFEPSYEVIFYGARYGSGGTSAACPLFSALVGMLNDARLRAGKSTLGFLNPLLYSKGYKALTDVTAGQSIGCNGIDPQSDEAVAGAGIIPWAHWNATVGWDPVTGLGLPDFEKLRQLVLS | – | – | – | – | – | – | – | – | – | 0.356 | – | 0.345 | – |
